According to US6444671B1, “Cyclic AMP-specific phosphodiesterase inhibitors” (ICOS Corporation, priority 1999, dated 2002):
Where two headings read alike, the source gives them in different places.

Tests used:
recombinant human PDE4 [1] = system: T1, recombinant human PDE4; experiment: PDE4 inhibition, recombinant human PDE4, [32P]cAMP charcoal separation assay; type: biochemical
T1 construct: PDE4 IC50 (nM); other: recombinant human PDE4
Procedure: The compounds of structural formula (II) were tested for an ability to inhibit PDE4. The ability of a compound to inhibit PDE4 activity is related to the IC50 value for the compound, i.e., the concentration of inhibitor required for 50% inhibition of enzyme activity. The IC50 value for compounds of structural formula (II) were determined using recombinant human PDE4.
The production of recombinant human PDEs and the IC50 determinations can be accomplished by well-known methods in the art. Exemplary methods are described as follows:
Recombinant production of human PDE1B, PDE2, PDE4A, PDE4B, PDE4C, PDE4D, PDE5, and PDE7 was carried out similarly to that described in Example 7 of U.S. Pat. No. 5,702,936, incorporated herein by reference, except that the yeast transformation vector employed, which is derived from the basic ADH2 plasmid described in Price et al., Methods in Enzymology, 135, pp. 308-318 (1990), incorporated. yeast ADH2 promoter and terminator sequences and the Saccharomyces cerevisiae host was the protease-deficient strain BJ2-54 deposited on Aug. 31, 1998 with the American Type Culture Collection, Manassas, Va., under accession number ATCC 74465. Transformed host cells were grown in 2×SC-leu medium, pH 6.2, with trace metals, and vitamins. After 24 hours, YEP medium-containing glycerol was added to a final concentration of 2×YET/3% glycerol. Approximately 24 hr later, cells were harvested, washed, and stored at −70° C.
Phosphodiesterase activity of the preparations was determined as follows. PDE assays utilizing a charcoal separation technique were performed essentially as described in Loughney et al. (1996). In this assay, PDE activity converts [32P]cAMP or [32P]cGMP to the corresponding [32P]5′-AMP or [32P]5′-GMP in proportion to the amount of PDE activity present. The [32P]5′-AMP or [32P]5′-GMP then was quantitatively converted to free [32P]phosphate and unlabeled adenosine or guanosine by the action of snake venom 5′-nucleotidase. […] The assay was performed at 30° C. in a 100 μL reaction mixture containing (final concentrations) 40 mM Tris HCl (pH 8.0), 1 μM ZnSO4, 5 mM MgCl2, and 0.1 mg/mL bovine serum albumin (BSA) Alternatively, in assays assessing PDE1-specific activity, incubation mixtures further incorporated the use of 0.1 mM CaChe and 10 μg/mL calmodulin. PDE enzyme was present in quantities that yield<30% total hydrolysis of substrate (linear assay conditions). The assay was initiated by addition of substrate ([…] [32P]cAMP or cGMP), and the mixture was incubated for 12 minutes. […] After centrifugation (750×g for 3 minutes) to sediment the charcoal, a sample of the supernatant was taken for radioactivity determination in a scintillation counter and the PDE activity was calculated.

recombinant human PDE4 [2] = conditions: reported value, background section; read-out: IC50 with respect to inhibiting recombinant human PDE4; cited from earlier work
[3] = in vivo; cited from earlier work

IC50 (recombinant human PDE4 [1]) [nM]	Compound	other results
6.1	CCc1nn(C2CCCC2)c2cc([C@@H]3CN(Cc4ccccc4)C[C@@]3(C)CO)ccc12 [Example 3, [(3S,4S)-4-(1-Cyclopentyl-3-ethyl(1H-indazol-6-yl))-3-methyl-1-benzylpyrrolidin-3-yl]methan-1-ol]	–
87.6	CCc1nn(C2CCCC2)c2cc([C@@H]3CN(Cc4ccccc4)C[C@@]3(C)C(C)O)ccc12 (stereo partly drawn) [Example 2, (1R)-1-[(3S,4S)-4-(1-Cyclopentyl-3-ethyl(1H-indazol-6-yl))-3-methyl-1-benzylpyrrolidin-3-yl]ethan-1-ol]	–
79.3	CCc1nn(C2CCCC2)c2cc([C@@H]3CN(C(=O)OC)C[C@@]3(C)CO)ccc12 [Example 4, Methyl (3S,4S)-4-(1-cyclopentyl-3-ethyl(1H-indazol-6-yl))-3-(hydroxymethyl)-3-methyl Pyrrolidine Carboxylate]	–
–	COC(=O)N1CC(c2ccc(OC)c(OC3CCCC3)c2)C(C)(C(C)=O)C1 (stereo not shown) [formula (I)]	IC50 (recombinant human PDE4 [2]): ~2 nM
–	COc1ccc(C2CNC(=O)C2)cc1OC1CCCC1 (stereo not shown) [Rolipram, rolipram]	IC50 (recombinant human PDE4 [2]): ~200 nM
316	CCc1nn(C2CCCC2)c2cc([C@@H]3CN(Cc4ccccc4)C[C@@]3(C)C(C)O)ccc12 (stereo partly drawn) [Example 1, (1S)-1-[(3S,4S)-4-(1-Cyclopentyl-3-ethyl(1H-indazol-6-yl))-3-methyl-1-benzylpyrrolidin-3-yl]ethan-1-ol]	–
–	R-rolipram	Emetic potential relative to the (+)-enantiomer (S-rolipram) [3]: about ten-fold more emetic
